Experiment in all cases: Competitive isoTOP-ABPP in situ (fragment-treated cells)
Assay [1] has as its target cysteines in MDA-MB-231 and Ramos cells (Homo sapiens, UniProt Q92616). Format: cell-based. The following applies: 200 μM, insitu.
For assay [2], the target named is T1, cysteines in MDA-MB-231 and Ramos cells (Homo sapiens, UniProt Q9HA64).
T1 sequence (Q9HA64 1-309): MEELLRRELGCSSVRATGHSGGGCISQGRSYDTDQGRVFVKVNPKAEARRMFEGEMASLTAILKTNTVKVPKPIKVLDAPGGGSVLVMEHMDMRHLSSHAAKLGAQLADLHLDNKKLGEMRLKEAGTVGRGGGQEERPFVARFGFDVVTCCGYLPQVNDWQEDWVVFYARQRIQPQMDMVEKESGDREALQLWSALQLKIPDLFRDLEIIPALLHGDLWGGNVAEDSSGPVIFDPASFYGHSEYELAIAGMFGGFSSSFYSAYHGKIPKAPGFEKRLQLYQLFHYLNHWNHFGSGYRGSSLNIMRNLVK
Format: cell-based.

The target in assay [3] is T2, cysteines in MDA-MB-231 and Ramos cells (Homo sapiens, UniProt Q99798).
T2 sequence (Q99798 28-780): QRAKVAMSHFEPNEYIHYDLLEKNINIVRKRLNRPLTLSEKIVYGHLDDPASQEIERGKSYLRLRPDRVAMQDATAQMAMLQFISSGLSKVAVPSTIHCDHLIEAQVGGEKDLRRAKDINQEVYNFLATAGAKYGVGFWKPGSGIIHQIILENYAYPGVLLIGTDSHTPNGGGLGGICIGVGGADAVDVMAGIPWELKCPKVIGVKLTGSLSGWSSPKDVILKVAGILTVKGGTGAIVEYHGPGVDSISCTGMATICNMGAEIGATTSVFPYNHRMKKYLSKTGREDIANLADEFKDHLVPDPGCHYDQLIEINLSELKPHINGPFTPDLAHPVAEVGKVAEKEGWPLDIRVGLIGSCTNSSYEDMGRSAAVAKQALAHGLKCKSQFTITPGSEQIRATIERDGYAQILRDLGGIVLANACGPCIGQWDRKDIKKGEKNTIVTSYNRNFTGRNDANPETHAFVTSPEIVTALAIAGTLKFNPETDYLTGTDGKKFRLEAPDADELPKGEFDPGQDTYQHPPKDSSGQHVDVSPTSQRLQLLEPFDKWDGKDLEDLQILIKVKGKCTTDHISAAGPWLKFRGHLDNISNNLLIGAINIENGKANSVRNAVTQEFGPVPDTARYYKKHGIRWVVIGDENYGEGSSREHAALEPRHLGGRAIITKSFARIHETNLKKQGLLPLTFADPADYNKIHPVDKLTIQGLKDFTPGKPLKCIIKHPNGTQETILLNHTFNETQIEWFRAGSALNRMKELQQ
Format: cell-based. The following applies: 200 μM, insitu, 231.

For assay [4], the target named is T3, cysteines in MDA-MB-231 and Ramos cells (Homo sapiens, UniProt Q16667).
T3 sequence (Q16667 1-212): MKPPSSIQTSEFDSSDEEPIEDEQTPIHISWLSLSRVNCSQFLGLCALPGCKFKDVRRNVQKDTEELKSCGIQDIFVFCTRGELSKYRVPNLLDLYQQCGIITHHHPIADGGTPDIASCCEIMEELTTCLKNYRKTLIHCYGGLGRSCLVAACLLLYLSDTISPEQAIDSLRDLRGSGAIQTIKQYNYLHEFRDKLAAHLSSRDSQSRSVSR
Format: cell-based. To be noted: 200 μM, insitu.

The target of assay [5] is cysteines in MDA-MB-231 and Ramos cells (Homo sapiens, UniProt O75150). The format is cell-based. To be noted: 200 μM, insitu.
The subject of assay [6] is cysteines in MDA-MB-231 and Ramos cells. The format is cell-based, human.
Assay [7] has as its target cysteines in MDA-MB-231 and Ramos cells (Homo sapiens, UniProt O00541). Format: cell-based.
Assay [8] concerns the target T4, cysteines in MDA-MB-231 and Ramos cells (Homo sapiens, UniProt Q9UL40).
T4 sequence (Q9UL40 1-294): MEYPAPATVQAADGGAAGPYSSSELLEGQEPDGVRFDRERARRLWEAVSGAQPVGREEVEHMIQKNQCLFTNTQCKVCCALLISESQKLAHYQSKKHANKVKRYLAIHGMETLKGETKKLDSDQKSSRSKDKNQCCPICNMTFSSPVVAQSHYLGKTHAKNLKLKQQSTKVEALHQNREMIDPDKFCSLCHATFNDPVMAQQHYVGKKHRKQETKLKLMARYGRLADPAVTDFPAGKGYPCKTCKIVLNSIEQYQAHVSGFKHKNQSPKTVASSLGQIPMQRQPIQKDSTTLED
Format: cell-based. To be noted: 200 μM, insitu.

The target of assay [9] is T5, cysteines in MDA-MB-231 and Ramos cells (Homo sapiens, UniProt Q9GZR2).
T5 sequence (Q9GZR2 1-422): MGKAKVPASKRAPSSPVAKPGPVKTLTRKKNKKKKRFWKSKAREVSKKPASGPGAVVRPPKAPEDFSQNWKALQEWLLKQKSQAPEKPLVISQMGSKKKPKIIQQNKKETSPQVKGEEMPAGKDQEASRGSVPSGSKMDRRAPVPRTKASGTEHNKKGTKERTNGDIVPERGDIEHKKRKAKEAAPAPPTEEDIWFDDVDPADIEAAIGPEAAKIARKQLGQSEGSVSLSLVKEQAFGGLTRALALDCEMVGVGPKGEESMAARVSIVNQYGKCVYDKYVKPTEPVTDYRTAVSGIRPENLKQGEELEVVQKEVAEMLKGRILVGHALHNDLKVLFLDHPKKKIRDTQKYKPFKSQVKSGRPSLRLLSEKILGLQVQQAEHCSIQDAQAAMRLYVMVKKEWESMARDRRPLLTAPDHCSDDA
The format is cell-based. To be noted: 200 μM, insitu.

For assay [10], the target named is T6, cysteines in MDA-MB-231 and Ramos cells (Homo sapiens, UniProt Q6QNY0).
T6 sequence (Q6QNY0 1-202): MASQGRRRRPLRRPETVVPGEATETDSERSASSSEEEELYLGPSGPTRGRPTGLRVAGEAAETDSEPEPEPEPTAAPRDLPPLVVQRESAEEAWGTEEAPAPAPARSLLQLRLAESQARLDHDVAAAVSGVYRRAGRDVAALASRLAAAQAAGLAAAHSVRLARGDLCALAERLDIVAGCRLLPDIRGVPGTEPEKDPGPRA
Format: cell-based. To be noted: 200 μM, insitu.

Assay [11] deals with cysteines in MDA-MB-231 and Ramos cells (Homo sapiens, UniProt Q8N999). The format is cell-based. To be noted: 200 μM, insitu, 231.
Chain of cysteines in MDA-MB-231 and Ramos cells (Homo sapiens, UniProt Q8N999) (Q8N999 whole entry): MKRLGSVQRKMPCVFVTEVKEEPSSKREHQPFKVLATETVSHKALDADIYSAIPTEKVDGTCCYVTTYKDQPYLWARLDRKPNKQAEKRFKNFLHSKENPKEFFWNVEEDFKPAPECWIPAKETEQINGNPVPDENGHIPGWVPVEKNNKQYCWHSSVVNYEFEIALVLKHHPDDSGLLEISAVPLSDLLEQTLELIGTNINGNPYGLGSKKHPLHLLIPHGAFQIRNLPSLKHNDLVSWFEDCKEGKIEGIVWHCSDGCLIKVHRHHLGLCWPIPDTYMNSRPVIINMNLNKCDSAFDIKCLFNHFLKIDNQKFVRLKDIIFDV
Assay [12] addresses cysteines in MDA-MB-231 and Ramos cells (Homo sapiens, UniProt P46013). The format is cell-based. To be noted: 200 μM, insitu.

“Also recorded” adds a separate entry of the source.

Chain of cysteines in MDA-MB-231 and Ramos cells (Homo sapiens, UniProt P46013) (P46013 whole entry): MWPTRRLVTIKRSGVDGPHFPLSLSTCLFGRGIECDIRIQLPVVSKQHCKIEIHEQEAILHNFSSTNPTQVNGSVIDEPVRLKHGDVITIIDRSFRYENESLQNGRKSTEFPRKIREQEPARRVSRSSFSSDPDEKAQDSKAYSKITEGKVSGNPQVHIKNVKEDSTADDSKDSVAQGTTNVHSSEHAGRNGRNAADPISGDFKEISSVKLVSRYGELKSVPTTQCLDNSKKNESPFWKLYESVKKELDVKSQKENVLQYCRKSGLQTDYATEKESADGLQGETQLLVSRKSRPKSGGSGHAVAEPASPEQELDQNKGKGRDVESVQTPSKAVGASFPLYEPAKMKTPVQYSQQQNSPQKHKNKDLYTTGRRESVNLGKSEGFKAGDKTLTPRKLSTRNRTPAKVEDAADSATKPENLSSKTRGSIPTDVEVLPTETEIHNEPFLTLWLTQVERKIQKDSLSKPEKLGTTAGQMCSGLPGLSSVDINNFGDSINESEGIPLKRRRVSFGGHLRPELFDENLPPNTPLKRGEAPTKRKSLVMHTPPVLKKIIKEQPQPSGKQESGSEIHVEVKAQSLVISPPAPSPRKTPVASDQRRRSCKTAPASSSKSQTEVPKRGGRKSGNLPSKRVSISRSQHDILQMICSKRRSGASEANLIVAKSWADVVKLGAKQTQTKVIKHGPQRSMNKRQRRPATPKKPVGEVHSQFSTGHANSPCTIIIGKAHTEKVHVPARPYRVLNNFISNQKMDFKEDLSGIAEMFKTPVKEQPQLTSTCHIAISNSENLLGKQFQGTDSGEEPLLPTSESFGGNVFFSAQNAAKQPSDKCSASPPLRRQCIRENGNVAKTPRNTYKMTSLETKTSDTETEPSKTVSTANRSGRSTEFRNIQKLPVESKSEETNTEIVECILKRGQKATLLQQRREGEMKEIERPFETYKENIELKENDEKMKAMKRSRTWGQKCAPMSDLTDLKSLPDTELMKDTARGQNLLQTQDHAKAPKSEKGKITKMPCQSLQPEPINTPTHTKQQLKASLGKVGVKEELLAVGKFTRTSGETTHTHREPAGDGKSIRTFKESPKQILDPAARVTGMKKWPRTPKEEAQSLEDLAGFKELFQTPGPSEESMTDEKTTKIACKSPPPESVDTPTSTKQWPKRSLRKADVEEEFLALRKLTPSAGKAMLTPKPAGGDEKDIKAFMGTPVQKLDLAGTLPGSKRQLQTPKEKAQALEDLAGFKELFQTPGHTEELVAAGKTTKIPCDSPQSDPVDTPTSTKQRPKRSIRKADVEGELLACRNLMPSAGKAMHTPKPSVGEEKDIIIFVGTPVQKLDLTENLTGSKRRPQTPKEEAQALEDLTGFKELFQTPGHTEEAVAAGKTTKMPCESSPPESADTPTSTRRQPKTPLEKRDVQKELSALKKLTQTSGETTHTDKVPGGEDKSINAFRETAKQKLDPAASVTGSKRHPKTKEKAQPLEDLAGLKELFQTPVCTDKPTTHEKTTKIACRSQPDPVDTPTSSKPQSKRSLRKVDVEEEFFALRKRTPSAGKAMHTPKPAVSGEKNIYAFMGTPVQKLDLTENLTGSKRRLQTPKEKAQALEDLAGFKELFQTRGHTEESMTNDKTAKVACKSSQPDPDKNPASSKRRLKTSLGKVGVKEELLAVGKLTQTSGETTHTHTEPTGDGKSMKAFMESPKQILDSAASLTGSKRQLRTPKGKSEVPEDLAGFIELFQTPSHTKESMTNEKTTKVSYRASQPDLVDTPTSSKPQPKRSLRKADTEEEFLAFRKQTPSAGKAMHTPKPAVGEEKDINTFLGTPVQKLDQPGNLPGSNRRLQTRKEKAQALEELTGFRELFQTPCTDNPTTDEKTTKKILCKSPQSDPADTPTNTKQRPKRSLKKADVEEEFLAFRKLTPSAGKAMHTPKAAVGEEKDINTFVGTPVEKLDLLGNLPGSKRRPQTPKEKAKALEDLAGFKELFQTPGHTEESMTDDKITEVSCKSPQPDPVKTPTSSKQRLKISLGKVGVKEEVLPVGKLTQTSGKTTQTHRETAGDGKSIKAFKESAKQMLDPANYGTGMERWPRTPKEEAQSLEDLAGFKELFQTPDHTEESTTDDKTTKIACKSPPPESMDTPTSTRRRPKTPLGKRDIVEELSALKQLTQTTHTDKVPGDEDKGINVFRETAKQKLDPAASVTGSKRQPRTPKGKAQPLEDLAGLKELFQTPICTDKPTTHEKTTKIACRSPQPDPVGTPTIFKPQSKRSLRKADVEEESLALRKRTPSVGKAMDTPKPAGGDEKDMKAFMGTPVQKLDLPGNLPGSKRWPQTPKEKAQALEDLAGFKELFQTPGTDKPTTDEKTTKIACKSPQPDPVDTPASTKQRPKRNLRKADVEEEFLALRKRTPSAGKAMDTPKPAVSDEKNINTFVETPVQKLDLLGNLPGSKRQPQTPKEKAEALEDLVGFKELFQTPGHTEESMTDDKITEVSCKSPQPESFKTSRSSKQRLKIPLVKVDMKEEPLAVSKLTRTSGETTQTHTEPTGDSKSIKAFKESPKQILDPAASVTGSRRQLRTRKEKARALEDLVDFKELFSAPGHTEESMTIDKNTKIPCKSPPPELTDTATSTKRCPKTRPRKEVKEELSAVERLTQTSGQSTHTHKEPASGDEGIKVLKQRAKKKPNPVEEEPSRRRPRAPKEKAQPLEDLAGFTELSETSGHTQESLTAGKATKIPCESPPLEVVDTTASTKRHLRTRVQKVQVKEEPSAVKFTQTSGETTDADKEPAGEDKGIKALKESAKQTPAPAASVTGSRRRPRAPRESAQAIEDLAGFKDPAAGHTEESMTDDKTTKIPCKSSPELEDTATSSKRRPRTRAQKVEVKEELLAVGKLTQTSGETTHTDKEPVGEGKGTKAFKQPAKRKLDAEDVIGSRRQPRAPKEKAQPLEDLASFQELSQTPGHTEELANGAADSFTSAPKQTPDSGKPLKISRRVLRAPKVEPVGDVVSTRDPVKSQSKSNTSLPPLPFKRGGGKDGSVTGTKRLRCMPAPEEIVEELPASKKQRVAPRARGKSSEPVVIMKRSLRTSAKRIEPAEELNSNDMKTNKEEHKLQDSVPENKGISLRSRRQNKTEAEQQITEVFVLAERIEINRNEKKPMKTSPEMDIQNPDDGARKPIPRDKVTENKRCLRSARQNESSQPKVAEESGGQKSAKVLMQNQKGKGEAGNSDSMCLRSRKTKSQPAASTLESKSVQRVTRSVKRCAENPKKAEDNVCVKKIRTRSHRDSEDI
Chain of cysteines in MDA-MB-231 and Ramos cells (Homo sapiens, UniProt O00541) (O00541 whole entry, looked up): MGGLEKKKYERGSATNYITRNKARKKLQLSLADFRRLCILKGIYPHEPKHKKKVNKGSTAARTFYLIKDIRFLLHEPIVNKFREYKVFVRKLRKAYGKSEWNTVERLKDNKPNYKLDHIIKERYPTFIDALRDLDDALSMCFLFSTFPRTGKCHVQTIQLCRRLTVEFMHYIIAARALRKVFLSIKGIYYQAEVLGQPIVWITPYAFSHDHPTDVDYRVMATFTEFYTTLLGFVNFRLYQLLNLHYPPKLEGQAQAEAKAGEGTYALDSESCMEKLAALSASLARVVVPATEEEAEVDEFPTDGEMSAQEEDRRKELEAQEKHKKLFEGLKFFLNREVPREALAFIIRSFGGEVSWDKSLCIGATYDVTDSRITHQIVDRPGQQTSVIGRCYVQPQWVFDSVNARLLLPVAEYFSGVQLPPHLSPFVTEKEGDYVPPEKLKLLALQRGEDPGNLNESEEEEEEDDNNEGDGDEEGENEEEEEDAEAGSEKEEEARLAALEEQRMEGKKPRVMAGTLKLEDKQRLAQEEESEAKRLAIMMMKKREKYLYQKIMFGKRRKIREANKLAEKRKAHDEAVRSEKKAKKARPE

For the molecule `COc1ccc2c(c1)CCCN2C(=O)CCl` [compound 2], in [1] (231), the “isoTOP-ABPP reactivity Q92616_C1692 GCN1L1” value is recorded as 1.4. The “isoTOP-ABPP reactivity Q9HA64_C24 FN3KRP” value in assay [2] (200 μM, insitu, 231) is 6.3.

In the case of `COc1ccc(C2CC(c3cccs3)=NN2C(=O)CCl)cc1` (stereo not shown) [compound 4], the “isoTOP-ABPP reactivity Q9HA64_C24 FN3KRP” value in [2] (100 μM in situ 231) is 20.0.

Turning to `O=C(CCl)N1CCC(Cc2ccccc2)CC1` [compound 9], in assay [2] (200 μM, insitu, 231), the “isoTOP-ABPP reactivity Q9HA64_C24 FN3KRP” value is recorded as 20.0.

As to `O=C(CCl)N1CCN(S(=O)(=O)c2ccccc2F)CC1` [compound 10], the “isoTOP-ABPP ratio, cysteine Q99798_C385” value in [3] was 0.7. Further, the “isoTOP-ABPP ratio, cysteine Q16667_C39” value in assay [4] (231) was 2.3. Also, the “isoTOP-ABPP ratio, cysteine O75150_C890” value in assay [5] (ramos) is reported as 4.2.

Turning to `Cn1cc(S(=O)(=O)N2CCOCC2)cc1C(=O)NC(=O)CCl` [compound 11], the “isoTOP-ABPP ratio, cysteine E2QRD5_C183” value in assay [6] (100 μM in situ 231) came to 0.9. Also, in assay [6] (in situ, 2 h, versus in vitro), the “proteomic reactivity in situ (in words)” value is “notably devoid of activity in situ; also recorded: notably lower reactivity in situ versus in vitro”. Also, the “isoTOP-ABPP ratio, cysteine O00541_C272” value in assay [7] (100 μM in situ 231) is 1.0.

For `O=C(CCl)NC(=O)NC12CC3CC(CC(C3)C1)C2` [compound 12], in assay [8] (231), the “isoTOP-ABPP ratio, cysteine Q9UL40_C68” value is listed as 20.0. Also, the “isoTOP-ABPP ratio, cysteine O75150_C890” value in assay [5] (231) was determined as 1.1. Besides, the “isoTOP-ABPP ratio, cysteine Q9GZR2_C382” value in assay [9] (231) amounted to 20.0.

For the molecule `O=C(CCl)NCCc1c[nH]c2ccccc12` [compound 13], the “isoTOP-ABPP ratio, cysteine Q16667_C39” value in assay [4] (ramos) is 1.2. The “isoTOP-ABPP ratio, cysteine Q6QNY0_C168” value in assay [10] (ramos) was 1.2. The “isoTOP-ABPP ratio, cysteine Q9UL40_C68” value in assay [8] (ramos) is 20.0. In [1] (ramos), the “isoTOP-ABPP ratio, cysteine Q92616_C1692” value is reported as 0.9. Besides, the “isoTOP-ABPP ratio, cysteine O00541_C272” value in assay [7] (200 μM, insitu, 231) is reported as 1.4. For the same molecule, the “isoTOP-ABPP ratio, cysteine Q9GZR2_C382” value in assay [9] (ramos) stood at 0.9.

In the case of `O=C(CCl)NC12CC3CC(CC(C3)C1)C2` [compound 21], in [3], the “isoTOP-ABPP ratio, cysteine Q99798_C385” value is recorded as 2.0. Moreover, the “isoTOP-ABPP ratio, cysteine E2QRD5_C183” value in assay [6] (200 μM, insitu, 231) is on record as 0.8. Moreover, in assay [4] (231), the “isoTOP-ABPP ratio, cysteine Q16667_C39” value was 0.8. The “isoTOP-ABPP ratio, cysteine Q9HA64_C24” value in assay [2] (200 μM, insitu, 231) is given as 0.6.

In the case of `CC(C)CCOCCNC(=O)CCl` [compound 27], the “isoTOP-ABPP ratio Q9UL40_C68” value in assay [8] (231) worked out at 1.9. The “isoTOP-ABPP ratio O75150_C890” value in [5] (231) is 1.2. In addition, the “isoTOP-ABPP ratio Q92616_C1692” value in assay [1] (231) is 0.5.

Take `COc1ccccc1OCCNC(=O)CCl` [compound 28]: the “isoTOP-ABPP ratio Q8N999_C302” value in [11] is 0.6.

As to `O=C(CCl)N1CCN(CC(=O)N2CCOCC2)CC1` [compound 29], the “isoTOP-ABPP ratio Q16667_C39” value in [4] (ramos) worked out at 1.7. For the same molecule, in assay [10] (ramos), the “isoTOP-ABPP ratio Q6QNY0_C168” value worked out at 1.6. In assay [8] (ramos), the “isoTOP-ABPP ratio Q9UL40_C68” value is recorded as 2.4. In assay [12] (ramos), the “isoTOP-ABPP ratio P46013_C903” value turned out to be 1.6.

For the molecule `C=CC(=O)N(Cc1cccnc1)c1cc(C(F)(F)F)cc(C(F)(F)F)c1` [compound 31], the “isoTOP-ABPP ratio E2QRD5_C183” value in [6] (200 μM, insitu, 231) is 0.8. The “isoTOP-ABPP ratio O75150_C890” value in [5] (231) came to 0.7. Further, the results for the “isoTOP-ABPP ratio Q92616_C1692” value in assay [1] (231) and in assay [1] (ramos) were 0.6 and 2.0, respectively.

As to `C=CC(=O)Nc1cc(F)c(N2CCN(C(=O)OC(C)(C)C)CC2)c(F)c1` [compound 38], the “isoTOP-ABPP ratio Q6QNY0_C168” value in [10] (231) is 1.0. In [2] (200 μM, insitu, 231), the “isoTOP-ABPP ratio Q9HA64_C24” value worked out at 1.7. For the same molecule, the “isoTOP-ABPP ratio P46013_C903” value in assay [12] (231) is 1.1.

For the molecule `Cc1ccc(C=C(C#N)C(=O)NCCN2CCOCC2)cc1` [compound 41], the “isoTOP-ABPP ratio Q99798_C385” value in assay [3] turned out to be 0.1. In [6] (200 μM, insitu, 231), the “isoTOP-ABPP ratio E2QRD5_C183” value is reported as 0.5. Moreover, the “isoTOP-ABPP ratio O75150_C890” value in [5] (231) came out at 1.3. Further, the “isoTOP-ABPP ratio Q92616_C1692” value in [1] (231) amounted to 0.7. Further, the “isoTOP-ABPP ratio Q8N999_C302” value in assay [11] is 0.3. Moreover, the “isoTOP-ABPP ratio, O00541_C272” value in assay [7] (200 μM, insitu, 231) stood at 0.9. The “isoTOP-ABPP ratio P46013_C903” value in assay [12] (231) is on record as 1.0.

Take `CC1CCc2ccccc2N1C(=O)CCl` (stereo not shown) [compound 45]: in assay [11], the “isoTOP-ABPP ratio Q8N999_C302” value stood at 20.0. The “isoTOP-ABPP ratio Q9GZR2_C382” value in assay [9] (231) is reported as 20.0. Besides, the “isoTOP-ABPP ratio P46013_C903” value in assay [12] (231) is given as 20.0.

Regarding `O=C(CCl)Nc1cccc2ncccc12` [compound 51], the “isoTOP-ABPP ratio P46013_C903” value in [12] (231) turned out to be 1.1.
